From patent US9963467B2, “Boronic acid derivatives and therapeutic uses thereof” (Rempex Pharmaceuticals, Inc., priority 2014, dated 2018)

How the values were obtained:
[1] = Serum stability of prodrugs, human serum; type: in vitro ADME; conditions: human serum; prodrug; theoretical initial conc. 20 ug/mL
Method: (§1) Prodrug strategy is one of the ways to achieve or increase oral bioavailability for therapeutic drugs. […] After a prodrug molecule is absorbed into systemic circulation, it should be hydrolyzed in the blood in order to release the active form. Hydrolysis of several prodrugs by rat and human serum were evaluated.
(§2) For all stability experiments the test compounds were treated with rat or human serum in Eppendorf tubes. Typically, 992 μl of serum was prewarmed at 37 degrees for 2 minutes and then 8 μl of a compound (at 5 mg/ml, 125×) was added to it to get a final concentration of […] and immediately mixed. Alternatively, serum stability might be tested at 1 mg/ml. […] After vortexing for 30 seconds, the tube was centrifuged in a microcentrifuge for 10 minutes at 15K rpm. Next, 100 μl of the supernatant was combined with 600 μl of water and injected on LC-MS using 0.1% formic acid in water for mobile phase A and 0.1% formic acid in methanol for mobile phase B on an ACE 5 C18 2.1×100 mm column with a 10 μL injection. The flow rate and gradient were adjusted as needed to give the desired resolution and run time. The pH of the mobile phase was adjusted if needed to improve the chromatography.
(§3) The time course of both the disappearance of a prodrug and the appearance of the active form of that prodrug is presented in Table 6 and Table 7. The active metabolites for all of the listed prodrugs are corresponding parent drugs

[2] = Serum stability of prodrugs, rat serum; type: in vitro ADME; conditions: theoretical initial conc. 20 ug/mL; for Measured Initial Conc. in Serum: 37 degrees
Method: as §1, §2, §3

[3] = Serum stability of prodrugs, human serum; type: in vitro ADME; conditions: theoretical initial conc. 20 ug/mL; for Measured Initial Conc. in Serum: 37 degrees; for Conc. at t = 1 hr: prodrug
ec302 (TEM-10) [4] = test: Aztreonam potentiation (MPC@4), ec302; type: cell-based; conditions: BLI with aztreonam at 4 μg/mL
ECL1002 [5] = test: Aztreonam potentiation (MPC@4), ECL1002; type: cell-based; conditions: BLI with aztreonam at 4 μg/mL
EC1010 (CMY-6) [6] = test: organism not typed; type: cell-based
KP1005 (CTX-M-14) = test: Tigemonam potentiation (MPC@4), KP1005; type: cell-based; conditions: BLI with tigemonam at 4 μg/mL
KP1009 (CTX-M-15) = test: Tigemonam potentiation (MPC@4), KP1009; type: cell-based; conditions: BLI with tigemonam at 4 μg/mL
ec308 (SHV-5) = test: Tigemonam potentiation (MPC@4), ec308; type: cell-based
KP1010 (SHV-12) = test: Tigemonam potentiation (MPC@4), KP1010; type: cell-based
ec302 (TEM-10) [7] = test: Tigemonam potentiation (MPC@4), ec302; type: cell-based
ECL1002 [8] = test: Tigemonam potentiation (MPC@4), ECL1002; type: cell-based; conditions: BLI with tigemonam at 4 μg/mL
EC1010 (CMY-6) [9] = test: Tigemonam potentiation (MPC@4), EC1010; type: cell-based; conditions: BLI with tigemonam at 4 μg/mL
CTX-M-14 = CTX-M-14 (Escherichia coli, UniProt Q9L5C7); test: Ki, nitrocefin cleavage by purified enzyme, CTX-M-14; type: biochemical; conditions: nitrocefin reporter substrate; read-out: Ki (CTX-M-14, NCF)
Chain of CTX-M-14 (Q9L5C7 29-291): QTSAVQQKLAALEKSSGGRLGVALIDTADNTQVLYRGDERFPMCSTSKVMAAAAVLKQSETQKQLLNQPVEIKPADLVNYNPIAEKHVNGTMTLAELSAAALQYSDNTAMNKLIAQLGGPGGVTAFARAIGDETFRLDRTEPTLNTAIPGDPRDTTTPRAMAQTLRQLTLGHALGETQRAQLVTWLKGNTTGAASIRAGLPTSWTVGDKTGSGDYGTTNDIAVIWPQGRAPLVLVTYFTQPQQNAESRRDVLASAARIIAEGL
Method: (§4) Purified enzymes were mixed with various concentrations of inhibitors in reaction buffer and incubated for 10 min at room temperature. Nitrocefin was added and substrate cleavage profiles were recorded at 490 nm every 10 sec for 10 min.

SHV-12 = SHV-12 (Klebsiella pneumoniae, UniProt P0AD64, E235K/G234S/L31Q); test: Ki, nitrocefin cleavage by purified enzyme, SHV-12; type: biochemical; conditions: nitrocefin reporter substrate; read-out: Ki (SHV-12, NCF)
Chain of SHV-12 (P0AD64 22-286 L31Q/G234S/E235K): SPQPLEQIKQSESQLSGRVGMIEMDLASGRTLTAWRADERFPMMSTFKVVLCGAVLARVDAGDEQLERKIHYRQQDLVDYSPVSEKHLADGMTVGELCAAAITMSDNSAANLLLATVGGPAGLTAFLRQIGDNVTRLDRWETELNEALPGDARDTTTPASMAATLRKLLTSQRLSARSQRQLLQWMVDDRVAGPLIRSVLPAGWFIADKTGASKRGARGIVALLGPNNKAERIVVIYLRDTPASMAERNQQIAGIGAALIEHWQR
Method: as §4

KPC-2 = KPC-2 (Klebsiella pneumoniae, UniProt Q9F663); test: Ki, nitrocefin cleavage by purified enzyme, KPC-2; type: biochemical; conditions: nitrocefin reporter substrate; read-out: Ki (KPC-2, NCF)
Chain of KPC-2 (Q9F663 25-293, looked up, species assumed): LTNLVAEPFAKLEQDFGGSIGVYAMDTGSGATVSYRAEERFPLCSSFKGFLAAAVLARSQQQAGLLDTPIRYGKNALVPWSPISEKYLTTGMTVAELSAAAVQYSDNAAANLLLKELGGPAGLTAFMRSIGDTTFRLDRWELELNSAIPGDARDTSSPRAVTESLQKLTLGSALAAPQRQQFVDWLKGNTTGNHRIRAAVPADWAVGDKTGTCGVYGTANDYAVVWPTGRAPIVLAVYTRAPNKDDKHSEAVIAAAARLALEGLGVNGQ
Method: as §4

P99 = P99 (Enterobacter cloacae, UniProt P05364); test: Ki, nitrocefin cleavage by purified enzyme, P99; type: biochemical; conditions: nitrocefin reporter substrate; read-out: Ki (P99, NCF)
Chain of P99 (P05364 21-381): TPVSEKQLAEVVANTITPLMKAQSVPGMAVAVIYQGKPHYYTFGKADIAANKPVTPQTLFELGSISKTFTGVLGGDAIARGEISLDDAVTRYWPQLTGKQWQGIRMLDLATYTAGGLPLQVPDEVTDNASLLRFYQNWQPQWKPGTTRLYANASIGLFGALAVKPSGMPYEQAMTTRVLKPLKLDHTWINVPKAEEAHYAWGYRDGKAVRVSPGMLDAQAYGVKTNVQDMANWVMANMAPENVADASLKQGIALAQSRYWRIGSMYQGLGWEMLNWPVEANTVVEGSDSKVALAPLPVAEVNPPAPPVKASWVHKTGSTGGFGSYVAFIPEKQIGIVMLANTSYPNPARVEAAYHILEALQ
Method: as §4

Pa AmpC = Pa AmpC (Pseudomonas aeruginosa, UniProt P24735); test: Ki, nitrocefin cleavage by purified enzyme, Pa AmpC; type: biochemical; conditions: nitrocefin reporter substrate; read-out: Ki (Pa AmpC, NCF)
Chain of Pa AmpC (P24735 27-397): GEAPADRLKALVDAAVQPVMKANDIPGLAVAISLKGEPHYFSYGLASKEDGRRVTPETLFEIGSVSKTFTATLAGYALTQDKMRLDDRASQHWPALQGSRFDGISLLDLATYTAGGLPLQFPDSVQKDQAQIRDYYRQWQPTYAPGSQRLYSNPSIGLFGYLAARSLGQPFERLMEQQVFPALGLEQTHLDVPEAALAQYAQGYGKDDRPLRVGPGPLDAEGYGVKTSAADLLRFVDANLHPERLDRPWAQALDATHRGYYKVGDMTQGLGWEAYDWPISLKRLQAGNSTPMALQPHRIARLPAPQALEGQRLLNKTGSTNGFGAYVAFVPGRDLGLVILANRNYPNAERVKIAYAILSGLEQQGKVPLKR
Method: Ki values of inhibition of purified class A, C and D enzymes were determined spectrophotometrically using nitrocefin as reporter substrate. Purified enzymes were mixed with various concentrations of inhibitors in reaction buffer and incubated for 10 min at room temperature. Nitrocefin was added and substrate cleavage profiles were recorded at 490 nm every 10 sec for 10 min. These experiments confirmed that the described compounds are inhibitors with a broad-spectrum of activity towards various β-lactamases.

OXA-48 = OXA-48 (Klebsiella pneumoniae, UniProt Q6XEC0); test: Ki, nitrocefin cleavage by purified enzyme, OXA-48; type: biochemical; conditions: nitrocefin reporter substrate; read-out: Ki (OXA-48, NCF)
Chain of OXA-48 (Q6XEC0 23-265, looked up, species assumed): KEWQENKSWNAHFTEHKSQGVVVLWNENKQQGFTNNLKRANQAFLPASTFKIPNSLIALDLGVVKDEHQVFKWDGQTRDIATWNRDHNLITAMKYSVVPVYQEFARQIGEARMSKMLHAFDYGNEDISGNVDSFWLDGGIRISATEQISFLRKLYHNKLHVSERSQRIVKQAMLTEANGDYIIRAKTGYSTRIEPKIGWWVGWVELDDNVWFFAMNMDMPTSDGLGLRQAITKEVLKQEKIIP
Method: as §4

KP1004 (KPC-2) = test: Biapenem potentiation (MPC@1), KP1004; conditions: BLI with biapenem at 1 μg/mL
KP1086 (OXA-48) = test: Biapenem potentiation (MPC@1), KP1086; conditions: BLI with biapenem at 1 μg/mL

Row | Structure (SMILES) | Conc. at t = 3 hr [1] | Measured Initial Conc. in Serum [2] | AZT MPC4 TEM-10 ec302 (ec302 (TEM-10) [4]) | AZT MPC4 ECL1002 (ECL1002 [5]) | AZT MPC4 CMY-6 EC1010 (EC1010 (CMY-6) [6]) | TIG MPC4 CTX-M-14 KP1005 (KP1005 (CTX-M-14)) | TIG MPC4 CTX-M-15 KP1009 (KP1009 (CTX-M-15)) | TIG MPC4 SHV-5 ec308 (ec308 (SHV-5)) | TIG MPC4 SHV-12 KP1010 (KP1010 (SHV-12)) | TIG MPC4 TEM-10 ec302 (ec302 (TEM-10) [7]) | TIG MPC4 ECL1002 (ECL1002 [8]) | TIG MPC4 CMY-6 EC1010 (EC1010 (CMY-6) [9]) | Ki (CTX-M-14) | Ki (SHV-12) | Ki (KPC-2) | Ki (P99) | Ki (Pa AmpC) | Ki (OXA-48) | BPM MPC1 KP1004 KPC-2 (KP1004 (KPC-2)) | BPM MPC1 OXA-48 KP1086 (KP1086 (OXA-48)) | also measured
1 | CCC(=O)OCOC(=O)c1c(F)ccc2c1OB(O)[C@@H](NC(=O)CSC)C2 [Compound 16, (R)-propionyloxymethyl 7-fluoro-2-hydroxy-3-(2-(methylthio)acetamido)-3,4-dihydro-2H-benzo[e][1,2]oxaborinine-8-carboxylate] | 270 ng/mL | 20.2 µg/mL | – | – | – | – | – | – | – | – | – | – | – | – | – | – | – | – | – | – | Conc. at t = 1 hr ([2]; prodrug): 400 ng/mL; Conc. at t = 3 hr ([2]; prodrug): 0 ng/mL; Measured Initial Conc. in Serum [3]: 20.7 µg/mL; Conc. at t = 1 hr [3]: 2290 ng/mL
2 | CSCC(=O)N[C@H]1Cc2ccc(F)c(C(=O)OCOC(=O)C(C)C)c2OB1O [Compound 17, (R)-isobutyryloxymethyl 7-fluoro-2-hydroxy-3-(2-(methylthio)acetamido)-3,4-dihydro-2H-benzo[e][1,2]oxaborinine-8-carboxylate] | 160 ng/mL | 9.22 µg/mL | – | – | – | – | – | – | – | – | – | – | – | – | – | – | – | – | – | – | Conc. at t = 1 hr ([2]; prodrug): 1350 ng/mL; Measured Initial Conc. in Serum [3]: 9.74 µg/mL; Conc. at t = 1 hr [3]: 1180 ng/mL
3 | COc1ccc2c(c1C(=O)O)OB(O)[C@@H](NC(=O)CSC(F)F)C2 [Compound 25, (R)-3-(2-(difluoromethylthio)acetamido)-2-hydroxy-7-methoxy-3,4-dihydro-2H-benzo[e][1,2]oxaborinine-8-carboxylic acid] | – | – | X (MIC of less than 1 ng/mL) | Y (MIC of 1 μg/mL to 10 μg/mL) | Y (key: X: MIC of less than 1 ng/mL; Y: MIC of 1 μg/mL to 10 μg/mL; Z: MIC of greater than 10 μg/mL) | X (MIC of less than 1 μg/mL) | X (MIC of less than 1 μg/mL) | X (key: X: MIC of less than 1 μg/mL; Y: MIC of 1 μg/mL to 10 μg/mL; Z: MIC of greater than 10 μg/mL) | X (key: X: MIC of less than 1 μg/mL; Y: MIC of 1 μg/mL to 10 μg/mL; Z: MIC of greater than 10 μg/mL) | Y (key: X: MIC of less than 1 ng/mL; Y: MIC of 1 μg/mL to 10 μg/mL; Z: MIC of greater than 10 μg/mL) | X (MIC of less than 1 μg/mL) | X (MIC of less than 1 μg/mL) | < 1 nM | < 1 nM | 1 to 10 nM | 1 to 10 nM | > 10 nM | < 1 nM | X (MIC of less than 1 μg/mL) | Z (MIC of greater than 10 μg/mL) | –
4 | COc1ccc2c(c1C(=O)O)OB(O)[C@@H](NC(=O)CSC1CNC1)C2 [Compound 26, (R)-3-(2-(azetidin-3-ylthio)acetamido)-2-hydroxy-7-methoxy-3,4-dihydro-2H-benzo[e][1,2]oxaborinine-8-carboxylic acid] | – | – | Y (MIC of 1 μg/mL to 10 μg/mL) | Y (MIC of 1 μg/mL to 10 μg/mL) | Y (key: X: MIC of less than 1 ng/mL; Y: MIC of 1 μg/mL to 10 μg/mL; Z: MIC of greater than 10 μg/mL) | X (MIC of less than 1 μg/mL) | X (MIC of less than 1 μg/mL) | X (key: X: MIC of less than 1 μg/mL; Y: MIC of 1 μg/mL to 10 μg/mL; Z: MIC of greater than 10 μg/mL) | X (key: X: MIC of less than 1 μg/mL; Y: MIC of 1 μg/mL to 10 μg/mL; Z: MIC of greater than 10 μg/mL) | Y (key: X: MIC of less than 1 ng/mL; Y: MIC of 1 μg/mL to 10 μg/mL; Z: MIC of greater than 10 μg/mL) | X (MIC of less than 1 μg/mL) | X (MIC of less than 1 μg/mL) | < 1 nM | < 1 nM | > 10 nM | > 10 nM | > 10 nM | 1 to 10 nM | X (MIC of less than 1 μg/mL) | Y (MIC of 1 μg/mL to 10 μg/mL) | –
5 | COc1ccc2c(c1C(=O)O)OB(O)[C@@H](NC(=O)CC(N)=O)C2 [Compound 27, (R)-3-(3-amino-3-oxopropanamido)-2-hydroxy-7-methoxy-3,4-dihydro-2H-benzo[e][1,2]oxaborinine-8-carboxylic acid] | – | – | Y (MIC of 1 μg/mL to 10 μg/mL) | Y (MIC of 1 μg/mL to 10 μg/mL) | Y (key: X: MIC of less than 1 ng/mL; Y: MIC of 1 μg/mL to 10 μg/mL; Z: MIC of greater than 10 μg/mL) | Y (MIC of 1 μg/mL to 10 μg/mL) | X (MIC of less than 1 μg/mL) | X (key: X: MIC of less than 1 μg/mL; Y: MIC of 1 μg/mL to 10 μg/mL; Z: MIC of greater than 10 μg/mL) | X (key: X: MIC of less than 1 μg/mL; Y: MIC of 1 μg/mL to 10 μg/mL; Z: MIC of greater than 10 μg/mL) | Z (key: X: MIC of less than 1 ng/mL; Y: MIC of 1 μg/mL to 10 μg/mL; Z: MIC of greater than 10 μg/mL) | X (MIC of less than 1 μg/mL) | X (MIC of less than 1 μg/mL) | < 1 nM | < 1 nM | > 10 nM | > 10 nM | > 10 nM | < 1 nM | X (MIC of less than 1 μg/mL) | Y (MIC of 1 μg/mL to 10 μg/mL) | –
